Assays:
[1] = tested on: KM12; experiment: Growth inhibition of human KM12 cells assessed as cell growth at 0.01 uM incubated for 48 hrs by sulforhodamine B assay relative to control; type: functional; settings: KM12, 48 h, read-out: Activity
[2] = tested on: SK-MEL-2; experiment: Growth inhibition of human SK-MEL-2 cells assessed as cell growth at 10 uM incubated for 48 hrs by sulforhodamine B assay relative to control; type: functional; settings: SK-MEL-2, 48 h, read-out: Activity
[3] = tested on: 786-0; experiment: Growth inhibition of human 786-0 cells assessed as cell growth at 100 uM incubated for 48 hrs by sulforhodamine B assay relative to control; type: functional; settings: 786-0, 48 h, read-out: Activity
[4] = tested on: HCT-15; experiment: Growth inhibition of human HCT15 cells assessed as cell growth at 0.01 uM incubated for 48 hrs by sulforhodamine B assay relative to control; type: functional; settings: HCT-15, 48 h, read-out: Activity
[5] = tested on: HT-29; experiment: Growth inhibition of human HT-29 cells assessed as cell growth at 100 uM incubated for 48 hrs by sulforhodamine B assay relative to control; type: functional; settings: HT-29, 48 h, read-out: Activity
[6] = tested on: OVCAR-3; experiment: Growth inhibition of human OVCAR3 cells incubated for 48 hrs by sulforhodamine B assay; type: functional, cell-based; settings: OVCAR-3, 48 h
[7] = tested on: A498; experiment: Growth inhibition of human A498 cells assessed as cell growth at 0.01 uM incubated for 48 hrs by sulforhodamine B assay relative to control; type: functional; settings: A498, 48 h, read-out: Activity
[8] = tested on: NCI-H226; experiment: Growth inhibition of human NCI-H226 cells assessed as cell growth at 0.01 uM incubated for 48 hrs by sulforhodamine B assay relative to control; type: functional; settings: NCI-H226, 48 h, read-out: Activity
[9] = tested on: U-251; experiment: Growth inhibition of human U251 cells assessed as cell growth at 0.1 uM incubated for 48 hrs by sulforhodamine B assay relative to control; type: functional; settings: U-251, 48 h, read-out: Activity
[10] = tested on: MDA-MB-468; experiment: Growth inhibition of human MDA-MB-468 cells assessed as cell growth at 0.01 uM incubated for 48 hrs by sulforhodamine B assay relative to control; type: functional; settings: MDA-MB-468, 48 h, read-out: Activity
[11] = tested on: CCRF-CEM; experiment: Growth inhibition of human CCRF-CEM cells assessed as cell growth at 100 uM incubated for 48 hrs by sulforhodamine B assay relative to control; type: functional; settings: read-out: Activity
[12] = tested on: IGROV-1; experiment: Growth inhibition of human IGROV1 cells assessed as cell growth at 0.01 uM incubated for 48 hrs by sulforhodamine B assay relative to control; type: functional; settings: IGROV-1, 48 h, read-out: Activity
[13] = tested on: HT-29; experiment: Growth inhibition of human HT-29 cells incubated for 48 hrs by sulforhodamine B assay; type: functional, cell-based; settings: HT-29, 48 h
[14] = tested on: HOP-62; experiment: Growth inhibition of human HOP62 cells assessed as cell growth at 100 uM incubated for 48 hrs by sulforhodamine B assay relative to control; type: functional; settings: HOP-62, 48 h, read-out: Activity
[15] = tested on: MDA-MB-435; experiment: Growth inhibition of human MDA-MB-435 cells assessed as cell growth at 0.1 uM incubated for 48 hrs by sulforhodamine B assay relative to control; type: functional; settings: MDA-MB-435, 48 h, read-out: Activity
[16] = tested on: HL-60(TB); experiment: Growth inhibition of human HL-60(TB) cells assessed as cell growth at 0.01 uM incubated for 48 hrs by sulforhodamine B assay relative to control; type: functional; settings: HL-60, 48 h, read-out: Activity
[17] = tested on: BT-549; experiment: Growth inhibition of human BT549 cells assessed as cell growth at 0.1 uM incubated for 48 hrs by sulforhodamine B assay relative to control; type: functional; settings: BT-549, 48 h, read-out: Activity
[18] = tested on: Hs-578T; experiment: Growth inhibition of human Hs578T cells assessed as cell growth at 0.01 uM incubated for 48 hrs by sulforhodamine B assay relative to control; type: functional; settings: read-out: Activity
[19] = tested on: HCT-116; experiment: Growth inhibition of human HCT116 cells assessed as cell growth at 1 uM incubated for 48 hrs by sulforhodamine B assay relative to control; type: functional; settings: HCT-116, 48 h, read-out: Activity
[20] = tested on: IGROV-1; experiment: Growth inhibition of human IGROV1 cells assessed as cell growth at 1 uM incubated for 48 hrs by sulforhodamine B assay relative to control; type: functional; settings: IGROV-1, 48 h, read-out: Activity
[21] = tested on: OVCAR-3; experiment: Growth inhibition of human OVCAR3 cells assessed as cell growth at 1 uM incubated for 48 hrs by sulforhodamine B assay relative to control; type: functional; settings: OVCAR-3, 48 h, read-out: Activity
[22] = tested on: RXF 393; experiment: Growth inhibition of human RXF393 cells incubated for 48 hrs by sulforhodamine B assay; type: functional, cell-based; settings: RXF 393, 48 h
[23] = tested on: SK-MEL-28; experiment: Growth inhibition of human SK-MEL-28 cells assessed as cell growth at 1 uM incubated for 48 hrs by sulforhodamine B assay relative to control; type: functional; settings: SK-MEL-28, 48 h, read-out: Activity
[24] = tested on: T47D; experiment: Growth inhibition of human T47D cells assessed as cell growth at 100 uM incubated for 48 hrs by sulforhodamine B assay relative to control; type: functional; settings: read-out: Activity
[25] = tested on: SK-OV-3; experiment: Growth inhibition of human SKOV3 cells incubated for 48 hrs by sulforhodamine B assay; type: functional, cell-based; settings: SK-OV-3, 48 h
[26] = tested on: DU-145; experiment: Growth inhibition of human DU145 cells assessed as cell growth at 0.01 uM incubated for 48 hrs by sulforhodamine B assay relative to control; type: functional; settings: DU-145, 48 h, read-out: Activity
[27] = tested on: UACC-257; experiment: Growth inhibition of human UACC257 cells assessed as cell growth at 100 uM incubated for 48 hrs by sulforhodamine B assay relative to control; type: functional; settings: UACC-257, 48 h, read-out: Activity
[28] = tested on: MDA-MB-435; experiment: Growth inhibition of human MDA-MB-435 cells incubated for 48 hrs by sulforhodamine B assay; type: functional, cell-based; settings: MDA-MB-435, 48 h
[29] = tested on: IGROV-1; experiment: Growth inhibition of human IGROV1 cells incubated for 48 hrs by sulforhodamine B assay; type: functional, cell-based; settings: IGROV-1, 48 h
[30] = read-out: LC50 (the source's name)
[31] = read-out: pLC50 (the source's name) (converted)

**Q.** What does the source list for `O=C(Nc1cccc(-n2cc(-c3ccncc3)c(-c3cc(O)cc(Cl)c3)n2)c1)Nc1ccc(Cl)c(C(F)(F)F)c1`?
**A.** growth at 0.01 µM [1]: 91%; growth at 10 µM [2]: -38%; growth at 100 µM [3]: -50%; growth at 0.01 µM [4]: 93%; growth at 100 µM [5]: -88%; IC50 [6]: 2.34 µM; GI50 ([6]; read-out: GI50): 2.34 µM; CC50 [6, 30]: > 100 µM; TGI ([6]; read-out: TGI): 50 µM; GI50 ([6]; read-out: pGI50 (converted)): 2.34 µM; CC50 [6, 31]: > 100 µM; TGI ([6]; read-out: pTGI (converted)): 6.61 µM; growth at 0.01 µM [7]: 58%; growth at 0.01 µM [8]: 97%; growth at 0.1 µM [9]: 91%; growth at 0.01 µM [10]: 93%; growth at 100 µM [11]: -3%; growth at 0.01 µM [12]: 94%; GI50 ([13]; read-out: GI50): 2.12 µM; CC50 [13, 30]: 95.9 µM; TGI ([13]; read-out: TGI): 45.7 µM; GI50 ([13]; read-out: pGI50 (converted)): 2.14 µM; CC50 [13, 31]: 10 µM; TGI ([13]; read-out: pTGI (converted)): 4.57 µM; growth at 100 µM [14]: -12%; growth at 0.1 µM [15]: 94%; growth at 0.01 µM [16]: 95%; growth at 0.1 µM [17]: 95%; growth at 0.01 µM [18]: 95%; growth at 1 µM [19]: 91%; growth at 1 µM [20]: 113%; growth at 1 µM [21]: 91%; LC50 [22]: 12.9 µM; GI50 ([22]; read-out: GI50): 1.42 µM; TGI ([22]; read-out: TGI): 36.6 µM; GI50 ([22]; read-out: pGI50 (converted)): 1.41 µM; TGI ([22]; read-out: pTGI (converted)): 3.89 µM; growth at 1 µM [23]: 81%; growth at 100 µM [24]: -52%; GI50 ([25]; read-out: GI50): 4.11 µM; CC50 [25, 30]: > 100 µM; TGI ([25]; read-out: TGI): 30.7 µM; GI50 ([25]; read-out: pGI50 (converted)): 4.07 µM; CC50 [25, 31]: > 100 µM; TGI ([25]; read-out: pTGI (converted)): 30.9 µM; growth at 0.01 µM [26]: 103%; growth at 100 µM [27]: -96%; GI50 ([28]; read-out: GI50): 1.73 µM; LC50 ([28]; read-out: LC50): 55.2 µM; TGI ([28]; read-out: TGI): 30 µM; GI50 ([28]; read-out: pGI50 (converted)): 1.78 µM; LC50 ([28]; read-out: pLC50 (converted)): 8.51 µM; TGI ([28]; read-out: pTGI (converted)): 3.89 µM; GI50 ([29]; read-out: GI50): 3.81 µM; CC50 [29, 30]: > 100 µM; TGI ([29]; read-out: TGI): 12.6 µM; GI50 ([29]; read-out: pGI50 (converted)): 3.8 µM; CC50 [29, 31]: > 100 µM; TGI ([29]; read-out: pTGI (converted)): 12.6 µM

**Q.** Which results are given for `COc1cc(Cl)cc(-c2nn(-c3cccc(NC(=O)Nc4ccc(Cl)c(C(F)(F)F)c4)c3)cc2-c2ccncc2)c1`?
**A.** growth at 0.01 µM [1]: 95%; growth at 10 µM [2]: -34%; growth at 100 µM [3]: -81%; growth at 0.01 µM [4]: 92%; growth at 100 µM [5]: -84%; IC50 [6]: 0.45 µM; GI50 ([6]; read-out: GI50): 0.451 µM; CC50 [6, 30]: 54.6 µM; TGI ([6]; read-out: TGI): 25.5 µM; GI50 ([6]; read-out: pGI50 (converted)): 4.47 µM; CC50 [6, 31]: 55 µM; TGI ([6]; read-out: pTGI (converted)): 28.8 µM; growth at 0.01 µM [7]: 57%; growth at 0.01 µM [8]: 97%; growth at 0.1 µM [9]: 92%; growth at 0.01 µM [10]: 92%; growth at 100 µM [11]: -29%; growth at 0.01 µM [12]: 112%; GI50 ([13]; read-out: GI50): 1.14 µM; CC50 [13, 30]: 3.52 µM; TGI ([13]; read-out: TGI): 43.8 µM; GI50 ([13]; read-out: pGI50 (converted)): 1.15 µM; CC50 [13, 31]: 38 µM; TGI ([13]; read-out: pTGI (converted)): 4.37 µM; growth at 100 µM [14]: -48%; growth at 0.1 µM [15]: 93%; growth at 0.01 µM [16]: 96%; growth at 0.1 µM [17]: 99%; growth at 0.01 µM [18]: 95%; growth at 1 µM [19]: 38%; growth at 1 µM [20]: 87%; growth at 1 µM [21]: 24%; LC50 [22]: 28.2 µM; GI50 ([22]; read-out: GI50): 1.71 µM; TGI ([22]; read-out: TGI): 44.2 µM; GI50 ([22]; read-out: pGI50 (converted)): 1.7 µM; TGI ([22]; read-out: pTGI (converted)): 9.33 µM; growth at 1 µM [23]: 85%; growth at 100 µM [24]: -18%; GI50 ([25]; read-out: GI50): 3.15 µM; CC50 [25, 30]: > 100 µM; TGI ([25]; read-out: TGI): 95.5 µM; GI50 ([25]; read-out: pGI50 (converted)): 3.16 µM; CC50 [25, 31]: > 100 µM; TGI ([25]; read-out: pTGI (converted)): 11.7 µM; growth at 0.01 µM [26]: 103%; growth at 100 µM [27]: -86%; GI50 ([28]; read-out: GI50): 1.75 µM; LC50 ([28]; read-out: LC50): > 100 µM; TGI ([28]; read-out: TGI): 43.5 µM; GI50 ([28]; read-out: pGI50 (converted)): 1.74 µM; LC50 ([28]; read-out: pLC50 (converted)): > 100 µM; TGI ([28]; read-out: pTGI (converted)): 3.47 µM; GI50 ([29]; read-out: GI50): 3.2 µM; CC50 [29, 30]: > 100 µM; TGI ([29]; read-out: TGI): 29.1 µM; GI50 ([29]; read-out: pGI50 (converted)): 3.24 µM; CC50 [29, 31]: > 100 µM; TGI ([29]; read-out: pTGI (converted)): 3.55 µM

— ChEMBL document CHEMBL4308841, “Synthesis, in vitro antiproliferative activity, and kinase inhibitory effects of pyrazole-containing diarylureas and diarylamides” (Eur J Med Chem, 2018)
